Columns and labels:
Format in all cases: functional
MDA-MB-435 [1] = assay: Growth inhibition of human MDA-MB-435 cells assessed as cell growth at 10^-5 M after 48 hrs by sulforhodamine B assay; details: MDA-MB-435, 48 h, read-out: Activity
OVCAR-8 = assay: Growth inhibition of human OVCAR8 cells assessed as cell growth at 10^-7 M after 48 hrs by sulforhodamine B assay; details: OVCAR-8, 48 h, read-out: Activity
HOP-62 [2] = assay: Growth inhibition of human HOP62 cells assessed as cell growth at 10^-4 M after 48 hrs by sulforhodamine B assay; details: HOP-62, 48 h, read-out: Activity
BT-549 [3] = assay: Growth inhibition of human BT549 cells assessed as cell growth at 10^-7 M after 48 hrs by sulforhodamine B assay; details: BT-549, 48 h, read-out: Activity
OVCAR-5 = assay: Growth inhibition of human OVCAR5 cells assessed as cell growth at 10^-7 M after 48 hrs by sulforhodamine B assay; details: OVCAR-5, 48 h, read-out: Activity
M14 [4] = assay: Growth inhibition of human M14 cells assessed as cell growth at 10^-8 M after 48 hrs by sulforhodamine B assay; details: M14, 48 h, read-out: Activity
SN12C = assay: Growth inhibition of human SN12C cells assessed as cell growth at 10^-5 M after 48 hrs by sulforhodamine B assay; details: read-out: Activity
HL-60(TB) [5] = assay: Growth inhibition of human HL-60(TB) cells assessed as cell growth at 10^-6 M after 48 hrs by sulforhodamine B assay; details: HL-60, 48 h, read-out: Activity
M14 [6] = assay: Growth inhibition of human M14 cells assessed as cell growth at 10^-5 M after 48 hrs by sulforhodamine B assay; details: M14, 48 h, read-out: Activity
MCF7 [7] = assay: Growth inhibition of human MCF7 cells assessed as cell growth at 10^-4 M after 48 hrs by sulforhodamine B assay; details: MCF7, 48 h, read-out: Activity
HOP-92 = assay: Growth inhibition of human HOP92 cells assessed as cell growth at 10^-8 M after 48 hrs by sulforhodamine B assay; details: HOP-92, 48 h, read-out: Activity
HCT-116 = assay: Growth inhibition of human HCT116 cells assessed as cell growth at 10^-8 M after 48 hrs by sulforhodamine B assay; details: HCT-116, 48 h, read-out: Activity
HL-60(TB) [8] = assay: Growth inhibition of human HL-60(TB) cells assessed as cell growth at 10^-7 M after 48 hrs by sulforhodamine B assay; details: HL-60, 48 h, read-out: Activity
NCI-H23 = assay: Growth inhibition of human NCI-H23 cells assessed as cell growth at 10^-6 M after 48 hrs by sulforhodamine B assay; details: NCI-H23, 48 h, read-out: Activity
HOP-62 [9] = assay: Growth inhibition of human HOP62 cells assessed as cell growth at 10^-7 M after 48 hrs by sulforhodamine B assay; details: HOP-62, 48 h, read-out: Activity
T47D = assay: Growth inhibition of human T47D cells assessed as cell growth at 10^-6 M after 48 hrs by sulforhodamine B assay; details: read-out: Activity
BT-549 [10] = assay: Growth inhibition of human BT549 cells assessed as cell growth at 10^-4 M after 48 hrs by sulforhodamine B assay; details: BT-549, 48 h, read-out: Activity
[11] = Growth inhibition of human NCI-ADR-RES cells assessed as cell growth at 10^-6 M after 48 hrs by sulforhodamine B assay; details: read-out: Activity
NCI-H226 = assay: Growth inhibition of human NCI-H226 cells assessed as cell growth at 10^-7 M after 48 hrs by sulforhodamine B assay; details: NCI-H226, 48 h, read-out: Activity
LOX IMVI = assay: Growth inhibition of human LOXIMVI cells assessed as cell growth at 10^-5 M after 48 hrs by sulforhodamine B assay; details: read-out: Activity
SF-295 = assay: Growth inhibition of human SF295 cells assessed as cell growth at 10^-6 M after 48 hrs by sulforhodamine B assay; details: SF-295, 48 h, read-out: Activity
Malme-3M = assay: Growth inhibition of human MALME-3M cells assessed as cell growth at 10^-8 M after 48 hrs by sulforhodamine B assay; details: read-out: Activity
UACC-257 [12] = assay: Growth inhibition of human UACC257 cells assessed as cell growth at 10^-7 M after 48 hrs by sulforhodamine B assay; details: UACC-257, 48 h, read-out: Activity
UACC-62 = assay: Growth inhibition of human UACC62 cells assessed as cell growth at 10^-7 M after 48 hrs by sulforhodamine B assay; details: UACC-62, 48 h, read-out: Activity
[13] = Growth inhibition of human HCC2998 cells assessed as cell growth at 10^-5 M after 48 hrs by sulforhodamine B assay; details: HCC 2998, 48 h, read-out: Activity
SF-268 = assay: Growth inhibition of human SF268 cells assessed as cell growth at 10^-4 M after 48 hrs by sulforhodamine B assay; details: SF-268, 48 h, read-out: Activity
UACC-257 [14] = assay: Growth inhibition of human UACC257 cells assessed as cell growth at 10^-5 M after 48 hrs by sulforhodamine B assay; details: UACC-257, 48 h, read-out: Activity
OVCAR-3 = assay: Growth inhibition of human OVCAR3 cells assessed as cell growth at 10^-7 M after 48 hrs by sulforhodamine B assay; details: OVCAR-3, 48 h, read-out: Activity
COLO 205 = assay: Growth inhibition of human COLO205 cells assessed as cell growth at 10^-4 M after 48 hrs by sulforhodamine B assay; details: COLO 205, 48 h, read-out: Activity
MCF7 [15] = assay: Growth inhibition of human MCF7 cells assessed as cell growth at 10^-6 M after 48 hrs by sulforhodamine B assay; details: MCF7, 48 h, read-out: Activity
CCRF-CEM = assay: Growth inhibition of human CCRF-CEM cells assessed as cell growth at 10^-5 M after 48 hrs by sulforhodamine B assay; details: read-out: Activity
SK-MEL-2 = assay: Growth inhibition of human SK-MEL-2 cells assessed as cell growth at 10^-4 M after 48 hrs by sulforhodamine B assay; details: SK-MEL-2, 48 h, read-out: Activity
PC-3 = assay: Growth inhibition of human PC3 cells assessed as cell growth at 10^-5 M after 48 hrs by sulforhodamine B assay; details: PC-3, 48 h, read-out: Activity
KM12 = assay: Growth inhibition of human KM12 cells assessed as cell growth at 10^-5 M after 48 hrs by sulforhodamine B assay; details: KM12, 48 h, read-out: Activity
A498 = assay: Growth inhibition of human A498 cells assessed as cell growth at 10^-8 M after 48 hrs by sulforhodamine B assay; details: A498, 48 h, read-out: Activity
CAKI-1 = assay: Growth inhibition of human CAKI-1 cells assessed as cell growth at 10^-8 M after 48 hrs by sulforhodamine B assay; details: CAKI-1, 48 h, read-out: Activity
MOLT-4 = assay: Growth inhibition of human MOLT4 cells assessed as cell growth at 10^-4 M after 48 hrs by sulforhodamine B assay; details: MOLT-4, 48 h, read-out: Activity
MDA-MB-435 [16] = assay: Growth inhibition of human MDA-MB-435 cells assessed as cell growth at 10^-4 M after 48 hrs by sulforhodamine B assay; details: MDA-MB-435, 48 h, read-out: Activity

SMILES | growth at 10 µM (MDA-MB-435 [1]) [%] | growth at 0.1 µM (OVCAR-8) [%] | growth at 100 µM (HOP-62 [2]) [%] | growth at 0.1 µM (BT-549 [3]) [%] | growth at 0.1 µM (OVCAR-5) [%] | growth at 0.01 µM (M14 [4]) [%] | growth at 10 µM (SN12C) [%] | growth at 1 µM (HL-60(TB) [5]) [%] | growth at 10 µM (M14 [6]) [%] | growth at 100 µM (MCF7 [7]) [%] | growth at 0.01 µM (HOP-92) [%] | growth at 0.01 µM (HCT-116) [%] | growth at 0.1 µM (HL-60(TB) [8]) [%] | growth at 1 µM (NCI-H23) [%] | growth at 0.1 µM (HOP-62 [9]) [%] | growth at 1 µM (T47D) [%] | growth at 100 µM (BT-549 [10]) [%] | growth at 1 µM [11] [%] | growth at 0.1 µM (NCI-H226) [%] | growth at 10 µM (LOX IMVI) [%] | further results
COc1cc(-c2nn(-c3cccc(NC(=O)c4ccc(N5CCOCC5)c(C(F)(F)F)c4)c3)cc2-c2ccncc2)ccc1Cl | -36 | 91 | 9 | 95 | 93 | 98 | 14 | 24 | 8 | 8 | 70 | 99 | 73 | 47 | 90 | 42 | 9 | 11 | 87 | -8 | growth at 1 µM (SF-295): 4%; growth at 0.01 µM (Malme-3M): 103%; growth at 0.1 µM (UACC-257 [12]): 74%; growth at 0.1 µM (UACC-62): 56%; growth at 10 µM [13]: -22%; growth at 100 µM (SF-268): 10%; growth at 10 µM (UACC-257 [14]): -5%; growth at 0.1 µM (OVCAR-3): 76%; growth at 100 µM (COLO 205): -75%; growth at 1 µM (MCF7 [15]): 18%; growth at 10 µM (CCRF-CEM): 5%; growth at 100 µM (SK-MEL-2): -34%; growth at 10 µM (PC-3): 1%; growth at 10 µM (KM12): -6%; growth at 0.01 µM (A498): 90%; growth at 0.01 µM (CAKI-1): 94%; growth at 100 µM (MOLT-4): 2%; growth at 100 µM (MDA-MB-435 [16]): -34%
COc1cc(-c2nn(-c3cccc(NC(=O)c4ccccc4)c3)cc2-c2ccncc2)ccc1Cl | -48 | 105 | 31 | 88 | 93 | 95 | 34 | 27 | 5 | 7 | 93 | 97 | 100 | 63 | 98 | 58 | 28 | 28 | 96 | 11 | growth at 1 µM (SF-295): 15%; growth at 0.01 µM (Malme-3M): 98%; growth at 0.1 µM (UACC-257 [12]): 99%; growth at 0.1 µM (UACC-62): 96%; growth at 10 µM [13]: 7%; growth at 100 µM (SF-268): 14%; growth at 10 µM (UACC-257 [14]): 29%; growth at 0.1 µM (OVCAR-3): 101%; growth at 100 µM (COLO 205): -54%; growth at 1 µM (MCF7 [15]): 17%; growth at 10 µM (CCRF-CEM): 6%; growth at 100 µM (SK-MEL-2): -30%; growth at 10 µM (PC-3): 13%; growth at 10 µM (KM12): 10%; growth at 0.01 µM (A498): 92%; growth at 0.01 µM (CAKI-1): 94%; growth at 100 µM (MOLT-4): 33%; growth at 100 µM (MDA-MB-435 [16]): -67%

— ChEMBL document CHEMBL2440076, “New triarylpyrazoles as broad-spectrum anticancer agents: design, synthesis, and biological evaluation” (Eur J Med Chem, 2013)
